Measured values published in PubChem BioAssay AID720604 (Broad Institute, 2013).
Inconclusive results are not listed.

System: HUVEC viability, CellTiter-Glo ATP luminescence, 8-48 h
Assay: HUVEC endothelial cell viability loss, dose response, cytotoxicity control for HRAS target identification, CellTiter-Glo ATP luminescence, 8/24/48 h, dry powder (AID 720604)

| Compound | AC50 (measured here: 8 h treatment) [µM] | AC50 (measured here: 24 h treatment) [µM] | AC50 (measured here: 48 h treatment) [µM] |
| --- | --- | --- | --- |
| COc1ccc(N(C(=O)CCl)C(C(=O)NCCc2ccccc2)c2cccs2)cc1Cl (stereo not given) | 25.4 | 5.53 | 5.1 |
| CC(C)(C)OC(=O)NCCOCCOCCOc1ccc(N(C(=O)CCl)C(C(=O)NCCc2ccccc2)c2cccs2)cc1Cl (stereo not given) | – | 7.15 | 7.2 |
